Measured values taken from patent US20110059114A1, “Compositions and Methods for the Treatment of Radioresistant Glioma Stem Cells” (DUKE UNIVERSITY, priority 2009, published 2011).

How the values were obtained:
T4302 CD133+ cells = assay: Annexin V staining, flow cytometry; assay type: cell-based, human
Method: FIG. 2 is a series of graphs illustrating that γ-secretase inhibitors enhance radiation-induced cell death in glioma stem cells. (A) T4302 CD 133+ cells were pre-treated with DAPT or L685,458 for 4 hours and irradiated at 3 Gy. Percentage of dead cells was determined by trypan blue exclusion assay at 48 hours after radiation exposure. (B) T4302 CD 133+ cells were treated with GSIs ±radiation as indicated. Cells were then plated at 3000 cells per well in 96-well plates. Relative caspase 3/7 activities were determined by normalizing caspase activities to the corresponding cell titers. (C) T4302 CD 133+ cells were treated as described in FIG. 2A. 24 or 48 hours after radiation exposure, cells were labeled with FITC-conjugated Annexin V staining kit (BD Sciences) according to manufacturer's instructions and analyzed by flow cytometry. (D) T4302 CD 133+ cells were pre-treated with 2 μM DAPT for 4 hours, and were left unirradiated or irradiated at 1, 2 or 3 Gy. Relative caspase 3/7 activities were determined at 72 hours after radiation. (E) T4302 CD133+ cells were pre-treated with DAPT at indicated concentrations for 4 hours and irradiated at 3 Gy. Relative caspase activities were determined at 48 or 72 hours after radiation. *: p<0.01 by Student's t-test; #: p<0.01 by one-way ANOVA.

γ-secretase = conditions: as suggested by the manufacturer; cited from earlier work
[1] = system: T4302 CD133+ glioma stem cells; assay: Growth curve, CellTiter-Glo Luminescent Cell Viability Assay; assay type: cell-based, human; conditions: without radiation treatment, day five; 2 μM DAPT or 0.5 μM L685,458
Excerpt: FIG. 1 is a series of graphs illustrating that γ-secretase inhibitors reduce cell growth and clonogenic survival of glioma stem cells following radiation. (A) T4302 CD133+ glioma stem cells were transfected with a Notch-responsive luciferase reporter (RBP-JK reporter) pre-mixed with the vector directing constitutive expression of Renilla luciferase. Cells were left unirradiated or irradiated at 3 Gy, and were then collected to measure luciferase activities at time points as indicated. […] The relative mRNA levels of Hes2 were determined by quantitative real-time PCR at the time points as indicated. […] Total viable cell numbers were then determined by the CellTiter-Glo Luminescent Cell Viability Assay (Promega) for the following five days. […] Cells were then plated to form neurospheres, and the surviving fractions were determined as described in methods. […] (F,G) Neurosphere formation of T3359 and T4105 CD 133+ cells treated with GSIs alone, 3-Gy radiation alone, or the combination was determined as described in FIG. 1E. *: p<0.05 by Student's t-test; #: p<0.001 by one-way ANOVA.
Growth Curve, caspase 3/7 assay, and clonogenic survival assay. […] Cell number was measured for 5 days using the CellTiter-Glo assay kit (Promega, Madison, […].). […]

Mcl-1 = assay: Immunoblotting of Mcl-1; assay type: cell-based, human; conditions: 2 μM DAPT, T4302 CD133+ cells
Method: FIG. 5 is a set of immunoblots and a graph illustrating that the Notch pathway regulates radioresistance of glioma stem cells via the Akt pathway and Mcl-1. T4302 CD 133+ cells were infected with control lentivirus or lentivirus directing expression of NICD2. Cells were pre-treated with or without 2 μM DPAT for 4 hours and exposed to 3-Gy radiation. Irradiated cells were collected at 24 or 48 hours after radiation, and sham-irradiated cells were collected at 48 hours after radiation. (A, C, D) Protein levels of phospho-Akt (S473), total Akt, PTEN, Bcl-2, Bcl-xL, Mcl-1, phospho-p53 (S15), total p53 and PUMA were assessed by immunoblotting. Actin was blotted as the loading control. (B) Control cells or NICD2-expressing cells were pre-treated with 10 μM PI3K inhibitor, LY294002, or 50 μM Akt inhibitor III (SH-6), for 4 hours prior to radiation exposure. Relative caspase 3/7 activities were determined at 48 hours after radiation exposure. #: p<0.001, by one-way ANOVA.
Antibodies, DNA constructs, lentiviruses and other reagents. The antibodies purchased from Cell Signaling Technology (Danvers, M A) include phosphor-S296-Chk1 (2349), total Chk1 (2345), phosphor-T68-Chk2 (2661), total Chk2 (2662), phospho-5473 Akt (#9271), total Akt (#9272), PTEN (#9556), phospho-S15-p53 (#9286), Bcl-2 (#2870), Bcl-xL (#2764), Mcl-1 (#4572), Puma (#4976). […]

CC(NC(=O)Cc1cc(F)cc(F)c1)C(=O)NC(C(=O)OC(C)(C)C)c1ccccc1 [DAPT, N-[N-(3,5-Difluorophenacetyl-L-alanyl)]-S-phenylglycine t-Butyl Ester]
Annexin V-positive labeled cells (T4302 CD133+ cells; 24 hours following 3 Gy radiation): not obvious | Annexin V-positive labeled cells (T4302 CD133+ cells; 48 hours following 3 Gy radiation): significantly increased | percentage of Annexin V-positive cells (T4302 CD133+ cells; NICD2 expression): failed to increase | IC50 (γ-secretase): 200 nM | sham-treated cells more than GSI-treated cells (total cell number) [1]: 25% | levels of Mcl-1 (Mcl-1): decreased | levels of Mcl-1 proteins of a smaller size (Mcl-1): increased
